Experimental findings from patent publication US6682927B2, “Methods and apparatus for the high through-put detection of binding interactions in vivo” (priority 1998, dated 2004) are described below.

For assay [1], the system named is cells expressing the plasma membrane localized GFP construct. The assay is described as follows: Control: fluorescence of cells expressing plasma membrane localized GFP. To be noted: ionomycin and phorbol ester added together. Type of assay: cell-based. How it is done:
FIG. 6. Evanescent wave excitation of fluorescent cytosolic and membrane proteins in adherent cells. (A) Schematic view of the microscope setup (see Materials and Methods section for description). (B) Fluorescent images of RBL cells that express cytosolic GFP (left; representative of 6 experiments) or plasma membrane targeted GFP (right, n=3). A myristoylation/palmitoylation sequence was fused to the N-terminal end of GFP for membrane targeting.
Fluorescent images were recorded from RBL-cells that had similar levels of expressed cytosolic or plasma membrane localized GFP constructs. The targeting of GFP to the plasma membrane utilized a fusion of the 12 amino acid palmitoylation/myristoylation plasma membrane targeting sequence from Lyn to the N-terminus of GFP (Teruel, et al. (1999) J. Neuroscience Methods 93: 37-48). The fluorescence intensity of cells with expressed cytosolic GFP (FIG. 6B) was typically 3 to 10-fold lower than the intensity of cells with expressed plasma membrane targeted GFP (FIG. 6C).
Analysis of Receptor Triggered Translocation of PKCγ-GFP in Thin Cells. […] The changes in fluorescence intensity could be followed in a series of several hundred images. […] Similar receptor-triggered fluorescence intensity oscillations could be observed in RBL cells (FIG. 7D) and 3T3 fibroblasts (data not shown).

The subject of assay [2] is RBL-cells that express C1A-CaMKII and GFP-CaMKIIα. The assay is described as follows: In vivo protein-protein binding assay with inducible C1A translocation domain, evanescent wave excitation. It counts as cell-based, Rat. To be noted: PDBu 1 μM, n=3. An excerpt: FIG. 10. Measuring protein-protein binding interactions of cytosolic proteins using an evanescent wave excitation. (A) Schematic representation of the in vivo binding assay. Binding between Proteins X and Y can be measured by conjugating Protein X with GFP and Protein Y with an inducible plasma membrane targeting domain. […] The C1A-domain from PKCγ was used as an inducible translocation domain. […] Typical translocation traces are shown.
Cloning of GFP-Fusion Constructs and Electroporation. […]
Measuring Protein-Protein Binding Interactions with High Signal-to-Background by Evanescent Wave Excitation. Protein-protein binding interactions have been measured previously by using a dual protein fusion strategy in which a protein Y was conjugated with an inducible plasma membrane translocation domain and a protein X with a GFP-tag (FIG. 5A, ref. 40). By inducing plasma membrane translocation of the non-fluorescent protein Y, the increase in plasma membrane fluorescence from the fluorescent protein X becomes a measure for the fraction of protein X that is bound to protein Y (since it is carried along with protein Y to the plasma membrane). […]
Evanescent wave excitation was now used in combination with the same assay. […] RNA transfection was used for quantitative expression of the two constructs (Teruel, et al. (1999) J. Neuroscience Methods 93: 37-48). […]

The subject of assay [3] is hippocampal astrocytes expressing PKCγ-GFP. Nature of the assay: Plasma membrane translocation of PKCγ-GFP by evanescent wave excitation. It counts as cell-based. To be noted: glutamate 100 μM, ionomycin 2 μM. The procedure: FIG. 7. Plasma membrane translocation of PKCγ measured in hippocampal astrocytes by evanescent wave excitation. (A) Time series of fluorescent images of cultured hippocampal astrocytes expressing PKCγ-GFP stimulated with glutamate (100 μM; n=47). […] (B) The same experiment as in (A) but with calcium ionophore added (2 μM ionomycin; n=8). (Bars=10 μm in (A) and (B)). (C) Time course of PKCγ-GFP translocation measured as a fractional increase in fluorescence intensity and triggered by glutamate addition (100 μM, left) to a single astrocyte (left panel; n=47). (D) Similar periodic intensity changes in an RBL stably expressing PAF receptors following the addition of 100 nM PAF. Ionomycin was added at the end of each experiment (2 μM).
Cell Culturing. Rat basophilic leukemia 2H3 (RBL) cells were grown and plated as described by Oancea, et al. ((1997) J. Cell Biol. 140, 485-498) and Oancea, E. & Meyer, T. ((1998) Cell 95, 307-318). […]
Evanescent Wave Excitation and Fluorescence Microscopy (also termed Total Internal Reflection Fluorescence Microscopy or TIRFM). […] For glass coverslips, total internal reflection occurs for angles above 61° [θI,c=arcsin(n2/n1), calculated for a refractive index n1=1.52 for glass and n2=1.33 for water]. […] The space constant of the exponential decay I(z)=I(0)exp(−z/d) at a given angle can be calculated as described by Axelrod ((1981) J. Cell. Biol. 89, 141-145). […]

In assay [4] the test system is RBL cells expressing PKCγ-YFP. Nature of the assay: E-SCAM measurement of plasma membrane translocation of PKCγ-YFP. Type of assay: cell-based, Rat. To be noted: ionomycin-induced PKCγ translocation in RBL cells; data not shown. An excerpt: FIG. 11. E-SCAM measurement of plasma membrane translocation events in more than a thousand cells. (A) Schematic view of the Evanescent wave Single Cell Array Macroscope (E-SCAM) in which the excitation light is directly coupled into the coverslip. (B) Low magnification images of RBL, cells expressing PKCγ-YFP before (left) and after stimulation with calcium ionophore (right). […] (Bar=1 mm). (C and D) Statistical analysis of receptor-triggered fluorescence intensity changes measured in RBL-cells expressing PKCγ-YFP after stimulation by cross-linking of their FcεRI receptors with the antigen DNP-BSA. (C) Typical time courses. (D) Histogram of the maximum amplitude of fluorescence intensity changes that was measured in each of more than 1000 cells visible in the field of view.
Construction of an Evanescent wave Single Cell Array Macroscope (E-SCAM). A wide-field microscope (macroscope) was designed in similar fashion to the higher magnification system described above. Two Rodenstock 100 mm Heligon lenses were mounted below the coverslip in opposite directions to obtain a combined objective and ocular with 1:1 magnification. The second lens projected the sample image onto a 5 MHz Micromax camera made commercially available from Roper Scientific of Trenton, N.J. This lens combination has high spatial and chromatic accuracy as well as a numerical aperture of NA˜0.3 (F/1.6). […]

Regarding `CCCC(=O)O[C@@H]1[C@@H](C)[C@@]2(O)[C@@H](C=C(CO)C[C@]3(O)C(=O)C(C)=C[C@@H]23)[C@@H]2C(C)(C)[C@]12OC(=O)CCC` [PDBu], the “change in fluorescence intensity of plasma membrane localized GFP (control)” value in assay [1] is “no significant change in fluorescence intensity”. Moreover, the “plasma membrane fluorescence change, C1A-CaMKIIα and GFP-CaMKIIα” value in assay [2] is recorded as “marked increase in plasma membrane fluorescence”.
In the case of `N[C@@H](CCC(=O)O)C(=O)O` [glutamate], the “change in fluorescence intensity (PKCγ-GFP translocation)” value in assay [3] is listed as “marked increase in fluorescence intensity”.
Take `C[C@H](CCC(=O)O)C[C@H](C)C[C@H](C)C(=O)/C=C(\O)[C@H](C)C[C@H](C)C/C=C/[C@@H](C)[C@@H](O)[C@@H](C)[C@@H](O)C[C@@H]1CC[C@@](C)([C@H]2CC[C@@](C)([C@@H](C)O)O2)O1` [ionomycin]: in assay [4], the “cell compliance of induced translocation” value is reported as 100%. Moreover, the “change in fluorescence intensity of plasma membrane localized GFP (control)” value in assay [1] was “no significant change in fluorescence intensity”.
